{"source": "paper PMC9516332", "about": "(Frontiers in Oncology, 2022)", "key": {"AP-1060 (ETV6-NTRK3)": {"tested_on": "AP-1060 (ETV6-NTRK3)", "experiment": "Cell viability assay", "details": "read-out: IC50 in cell proliferation assay"}, "134 cancer cell lines": {"tested_on": "134 cancer cell lines", "experiment": "Cell viability assay (ATPlite, 72 hours), IC50 on cancer cell line panel"}}, "note": "Where two headings read alike, the source gives them in different places."}
{"compound": "Cn1cnc2c(F)c(Nc3ccc(Br)cc3Cl)c(C(=O)NOCCO)cc21", "note": "[selumetinib]", "values": [{"measurement": "IC50", "setting": "AP-1060 (ETV6-NTRK3)", "result": "> 31600", "unit": "nM"}, {"measurement": "IC50", "setting": "134 cancer cell lines; HEC-6, read-out: IC50 in cell proliferation assay, HEC-6 cell line (EGFR p.A289V)", "result": "> 31600", "unit": "nM"}, {"measurement": "IC50", "setting": "134 cancer cell lines; Homo sapiens, 769-P, read-out: IC50 in cell proliferation assay, cell line 769-P", "result": 665, "unit": "nM"}, {"measurement": "IC50", "setting": "134 cancer cell lines; Homo sapiens, 786-0, read-out: IC50 in cell proliferation assay, cell line 786-O", "result": "> 31600", "unit": "nM"}, {"measurement": "IC50", "setting": "134 cancer cell lines; Homo sapiens, A 172, read-out: IC50 in cell proliferation assay, cell line A-172", "result": 25300, "unit": "nM"}, {"measurement": "IC50", "setting": "134 cancer cell lines; Homo sapiens, A204, read-out: IC50 in cell proliferation assay, cell line A-204", "result": "> 31600", "unit": "nM"}, {"measurement": "IC50", "setting": "134 cancer cell lines; Homo sapiens, A498, read-out: IC50 in cell proliferation assay, cell line A-498", "result": 137, "unit": "nM"}, {"measurement": "IC50", "setting": "134 cancer cell lines; Homo sapiens, A549, read-out: IC50 in cell proliferation assay, cell line A-549", "result": 132, "unit": "nM"}, {"measurement": "IC50", "setting": "134 cancer cell lines; Homo sapiens, A704, read-out: IC50 in cell proliferation assay, cell line A-704", "result": "> 31600", "unit": "nM"}, {"measurement": "IC50", "setting": "134 cancer cell lines; Homo sapiens, A-375, read-out: IC50 in cell proliferation assay, cell line A-375 (BRAF p.V600E)", "result": 145, "unit": "nM"}, {"measurement": "IC50", "setting": "134 cancer cell lines; Homo sapiens, A-427, read-out: IC50 in cell proliferation assay, cell line A-427", "result": 1340, "unit": "nM"}, {"measurement": "IC50", "setting": "134 cancer cell lines; Homo sapiens, ACHN, read-out: IC50 in cell proliferation assay, cell line ACHN", "result": 14400, "unit": "nM"}, {"measurement": "IC50", "setting": "134 cancer cell lines; Homo sapiens, AN3-CA, read-out: IC50 in cell proliferation assay, cell line AN3-CA (FGFR2 p.N549K)", "result": 2330, "unit": "nM"}, {"measurement": "IC50", "setting": "134 cancer cell lines; Homo sapiens, ASPC1, read-out: IC50 in cell proliferation assay, cell line AsPC-1", "result": 210, "unit": "nM"}, {"measurement": "IC50", "setting": "134 cancer cell lines; Homo sapiens, AU565, read-out: IC50 in cell proliferation assay, cell line AU565 (ERBB2 amplification)", "result": "> 31600", "unit": "nM"}, {"measurement": "IC50", "setting": "134 cancer cell lines; Homo sapiens, BT-20, read-out: IC50 in cell proliferation assay, cell line BT-20", "result": 9260, "unit": "nM"}, {"measurement": "IC50", "setting": "134 cancer cell lines; Homo sapiens, BT-474, read-out: IC50 in cell proliferation assay, cell line BT-474 (ERBB2 amplification)", "result": "> 31600", "unit": "nM"}, {"measurement": "IC50", "setting": "134 cancer cell lines; Homo sapiens, BT-549, read-out: IC50 in cell proliferation assay, cell line BT-549", "result": "> 31600", "unit": "nM"}, {"measurement": "IC50", "setting": "134 cancer cell lines; Homo sapiens, BXPC-3, read-out: IC50 in cell proliferation assay, cell line BxPC-3", "result": 472, "unit": "nM"}, {"measurement": "IC50", "setting": "134 cancer cell lines; Homo sapiens, C-33-A, read-out: IC50 in cell proliferation assay, cell line C-33 A", "result": 2.72, "unit": "nM"}, {"measurement": "IC50", "setting": "134 cancer cell lines; Homo sapiens, CAL-27, read-out: IC50 in cell proliferation assay, cell line CAL-27", "result": 61, "unit": "nM"}, {"measurement": "IC50", "setting": "134 cancer cell lines; Homo sapiens, CCF-STTG1, read-out: IC50 in cell proliferation assay, cell line CCF-STTG1", "result": "> 31600", "unit": "nM"}, {"measurement": "IC50", "setting": "134 cancer cell lines; Homo sapiens, CCRF-CEM, read-out: IC50 in cell proliferation assay, cell line CCRF-CEM", "result": "> 31600", "unit": "nM"}, {"measurement": "IC50", "setting": "134 cancer cell lines; Homo sapiens, COLO 205, read-out: IC50 in cell proliferation assay, cell line COLO 205 (BRAF p.V600E)", "result": 38, "unit": "nM"}, {"measurement": "IC50", "setting": "134 cancer cell lines; Homo sapiens, COLO-829, read-out: IC50 in cell proliferation assay, cell line COLO 829 (BRAF p.V600E)", "result": 117, "unit": "nM"}, {"measurement": "IC50", "setting": "134 cancer cell lines; Homo sapiens, DLD-1, read-out: IC50 in cell proliferation assay, cell line DLD-1", "result": 21400, "unit": "nM"}, {"measurement": "IC50", "setting": "134 cancer cell lines; Homo sapiens, DU-4475, read-out: IC50 in cell proliferation assay, cell line DU4475 (BRAF p.V600E)", "result": 88, "unit": "nM"}, {"measurement": "IC50", "setting": "134 cancer cell lines; Homo sapiens, Daoy, read-out: IC50 in cell proliferation assay, cell line Daoy", "result": "> 31600", "unit": "nM"}, {"measurement": "IC50", "setting": "134 cancer cell lines; Homo sapiens, DoTc2-4510, read-out: IC50 in cell proliferation assay, cell line DoTc2 4510", "result": 32, "unit": "nM"}, {"measurement": "IC50", "setting": "134 cancer cell lines; Homo sapiens, EOL1, read-out: IC50 in cell proliferation assay, cell line EoL-1 (FIP1L1-PDGFRA)", "result": 92, "unit": "nM"}, {"measurement": "IC50", "setting": "134 cancer cell lines; Homo sapiens, FaDu, read-out: IC50 in cell proliferation assay, cell line FaDu", "result": 73, "unit": "nM"}, {"measurement": "IC50", "setting": "134 cancer cell lines; Homo sapiens, G-361, read-out: IC50 in cell proliferation assay, cell line G-361 (BRAF p.V600E)", "result": 225, "unit": "nM"}, {"measurement": "IC50", "setting": "134 cancer cell lines; Homo sapiens, HCC827, read-out: IC50 in cell proliferation assay, cell line HCC827 (EGFR exon19del)", "result": 9710, "unit": "nM"}, {"measurement": "IC50", "setting": "134 cancer cell lines; Homo sapiens, HCC4006, read-out: IC50 in cell proliferation assay, cell line HCC4006 (EGFR exon19del)", "result": 26800, "unit": "nM"}, {"measurement": "IC50", "setting": "134 cancer cell lines; Homo sapiens, HCT-15, read-out: IC50 in cell proliferation assay, cell line HCT 15", "result": "> 31600", "unit": "nM"}, {"measurement": "IC50", "setting": "134 cancer cell lines; Homo sapiens, HCT-116, read-out: IC50 in cell proliferation assay, cell line HCT 116", "result": 2.26, "unit": "nM"}, {"measurement": "IC50", "setting": "134 cancer cell lines; Homo sapiens, HEC-1, read-out: IC50 in cell proliferation assay, HEC-1 cell line", "result": "> 31600", "unit": "nM"}, {"measurement": "IC50", "setting": "134 cancer cell lines; Homo sapiens, HEC-1B, read-out: IC50 in cell proliferation assay, HEC-1-B cell line (EGFR p.A864V)", "result": 27, "unit": "nM"}, {"measurement": "IC50", "setting": "134 cancer cell lines; Homo sapiens, HL-60, read-out: IC50 in cell proliferation assay, HL-60 cell line", "result": 13, "unit": "nM"}, {"measurement": "IC50", "setting": "134 cancer cell lines; Homo sapiens, HT, read-out: IC50 in cell proliferation assay, HT cell line", "result": 14800, "unit": "nM"}, {"measurement": "IC50", "setting": "134 cancer cell lines; Homo sapiens, HT-1080, read-out: IC50 in cell proliferation assay, HT-1080 cell line", "result": 132, "unit": "nM"}, {"measurement": "IC50", "setting": "134 cancer cell lines; Homo sapiens, Hs746T, read-out: IC50 in cell proliferation assay, Hs 746.T cell line (MET exon14skip + amplification)", "result": 19400, "unit": "nM"}, {"measurement": "IC50", "setting": "134 cancer cell lines; Homo sapiens, Hs-578T, read-out: IC50 in cell proliferation assay, Hs 578T cell line", "result": 78, "unit": "nM"}, {"measurement": "IC50", "setting": "134 cancer cell lines; Homo sapiens, HuTu80, read-out: IC50 in cell proliferation assay, HuTu 80 cell line", "result": 413, "unit": "nM"}, {"measurement": "IC50", "setting": "134 cancer cell lines; Homo sapiens, J82, read-out: IC50 in cell proliferation assay, J82 cell line", "result": 265, "unit": "nM"}, {"measurement": "IC50", "setting": "134 cancer cell lines; Homo sapiens, Jurkat E6.1, read-out: IC50 in cell proliferation assay, Jurkat E6.1 cell line", "result": "> 31600", "unit": "nM"}, {"measurement": "IC50", "setting": "134 cancer cell lines; Homo sapiens, K562, read-out: IC50 in cell proliferation assay, K-562 cell line", "result": 241, "unit": "nM"}, {"measurement": "IC50", "setting": "134 cancer cell lines; Homo sapiens, KATO III, read-out: IC50 in cell proliferation assay, KATO III cell line (FGFR2 amplification)", "result": 16500, "unit": "nM"}, {"measurement": "IC50", "setting": "134 cancer cell lines; Homo sapiens, KG-1, read-out: IC50 in cell proliferation assay, KG-1 cell line (FGFR1OP2-FGFR1)", "result": 10, "unit": "nM"}, {"measurement": "IC50", "setting": "134 cancer cell lines; Homo sapiens, KLE, read-out: IC50 in cell proliferation assay, KLE cell line", "result": "> 31600", "unit": "nM"}, {"measurement": "IC50", "setting": "134 cancer cell lines; Homo sapiens, KMS-11, read-out: IC50 in cell proliferation assay, KMS-11 cell line (FGFR3 p.Y373C)", "result": "> 31600", "unit": "nM"}, {"measurement": "IC50", "setting": "134 cancer cell lines; Homo sapiens, KU812, read-out: IC50 in cell proliferation assay, Ku812 cell line", "result": 73, "unit": "nM"}, {"measurement": "IC50", "setting": "134 cancer cell lines; Homo sapiens, Kasumi 1, read-out: IC50 in cell proliferation assay, Kasumi-1 cell line (KIT p.N822K)", "result": 345, "unit": "nM"}, {"measurement": "IC50", "setting": "134 cancer cell lines; Homo sapiens, LC-2-ad, read-out: IC50 in cell proliferation assay, LC-2/ad cell line (CCDC6-RET)", "result": 31000, "unit": "nM"}, {"measurement": "IC50", "setting": "134 cancer cell lines; Homo sapiens, LNCaP-Clone-FGC, read-out: IC50 in cell proliferation assay, LNCaP clone FGC cell line", "result": "> 31600", "unit": "nM"}, {"measurement": "IC50", "setting": "134 cancer cell lines; Homo sapiens, LS174T, read-out: IC50 in cell proliferation assay, LS174T cell line", "result": 177, "unit": "nM"}, {"measurement": "IC50", "setting": "134 cancer cell lines; Homo sapiens, LS-411N, read-out: IC50 in cell proliferation assay, LS411N cell line (BRAF p.V600E)", "result": 75, "unit": "nM"}, {"measurement": "IC50", "setting": "134 cancer cell lines; Homo sapiens, LoVo, read-out: IC50 in cell proliferation assay, LoVo cell line", "result": 34, "unit": "nM"}, {"measurement": "IC50", "setting": "134 cancer cell lines; Homo sapiens, MCF7, read-out: IC50 in cell proliferation assay, MCF-7 cell line", "result": "> 31600", "unit": "nM"}, {"measurement": "IC50", "setting": "134 cancer cell lines; Homo sapiens, MDA-MB-231, read-out: IC50 in cell proliferation assay, MDA-MB-231 cell line", "result": 1000, "unit": "nM"}, {"measurement": "IC50", "setting": "134 cancer cell lines; Homo sapiens, MDA-MB-453, read-out: IC50 in cell proliferation assay, MDA-MB-453 cell line", "result": 9170, "unit": "nM"}, {"measurement": "IC50", "setting": "134 cancer cell lines; Homo sapiens, MDA-MB-468, read-out: IC50 in cell proliferation assay, MDA-MB-468 cell line", "result": "> 31600", "unit": "nM"}, {"measurement": "IC50", "setting": "134 cancer cell lines; Homo sapiens, MG-63, read-out: IC50 in cell proliferation assay, MG-63 cell line", "result": 6090, "unit": "nM"}, {"measurement": "IC50", "setting": "134 cancer cell lines; Homo sapiens, MIA PaCa-2, read-out: IC50 in cell proliferation assay, MIA PaCa-2 cell line", "result": 221, "unit": "nM"}, {"measurement": "IC50", "setting": "134 cancer cell lines; Homo sapiens, MKN-45, read-out: IC50 in cell proliferation assay, MKN45 cell line (MET amplification)", "result": 2680, "unit": "nM"}, {"measurement": "IC50", "setting": "134 cancer cell lines; Homo sapiens, MOLM-13, read-out: IC50 in cell proliferation assay, MOLM-13 cell line (FLT3 ITD)", "result": 822, "unit": "nM"}]}
